Test results from the Deep4Chem optical property database.
Values joined by “and” are separate entries in the source; they are usually repeats but may differ in a detail not shown here. Equal values may be shown once. Each block holds one compound with its values, some of them ahead of it.

Assay: solvent given as SMILES

SMILES: COc1ccc(/C=C2\OC(=O)c3ccccc32)cc1
emission maximum (in CC#N): 456.2 nm and 446 nm
emission maximum (in CC(C)=O): 452.49 nm
emission maximum (in CC(C)CO): 451.88 nm
emission maximum (in CC(C)O): 459.77 nm
emission maximum (in CCCO): 460.83 nm
emission maximum (in CCO): 459.35 nm
emission maximum (in CCOC(C)=O): 438.6 nm
emission maximum (in CCOCC): 434.03 nm
emission maximum (in CO): 459.35 nm

emission maximum (in ClCCl): 407 nm
SMILES: CC(C)(C)NC(=O)c1cccc2ccc3c4cc(Cl)ccc4c4ccc(Cl)cc4c3c12

emission maximum (in ClC(Cl)Cl): 718 nm
SMILES: CCCCCCCCC1(CCCCCCCC)c2cc3c(cc2-c2sc(-c4ccc(/C=C5\SC(SCC)=NC5=O)c5nsnc45)cc21)C(CCCCCCCC)(CCCCCCCC)c1cc(-c2ccc(/C=C4\SC(SCC)=NC4=O)c4nsnc24)sc1-3

emission maximum (in ClCCl): 492 nm
SMILES: Cc1ccc(-c2cc(/C=C/c3ccc(N(c4ccccc4)c4ccccc4)cc3)c(-c3ccc(C)cc3)cc2/C=C/c2ccc(N(c3ccccc3)c3ccccc3)cc2)cc1

SMILES: CC(C)(C)c1ccc2c3c(c4ccc(C(C)(C)C)cc4c2c1)=[N+]1C(=C(c2ccccc2)c2cc4c5ccc(C(C)(C)C)cc5c5cc(C(C)(C)C)ccc5c4n2[B-]1(F)F)C=3
emission maximum (in C1CCCCC1): 709 nm
emission maximum (in C1CCOC1): 713 nm
emission maximum (in CC#N): 712 nm
emission maximum (in Cc1ccccc1): 713 nm
emission maximum (in ClCCl): 716 nm

emission maximum (in ClC(Cl)Cl): 589 nm
SMILES: COC(=O)c1ccc(C2=C3C(C)=CC(C)=[N+]3[B-](F)(F)n3c(/C=C/c4c[nH]cn4)cc(C)c32)cc1

emission maximum (in CC#N): 479 nm
emission maximum (in CCO): 419 nm
emission maximum (in ClCCl): 483 nm
SMILES: C[P+]1(c2ccccc2)C2=C(c3ccccc31)S(=O)(=O)c1ccccc12 (configuration not stated)

SMILES: c1ccc(-c2cc(-c3ccc4ccc5cccc6ccc3c4c56)ccn2)nc1
emission maximum (in C1CCOC1): 394 nm
emission maximum (in CC#N): 410 nm
emission maximum (in CCC#N): 408 nm
emission maximum (in CCCC#N): 408 nm
emission maximum (in CCCCCC): 385 nm
emission maximum (in CCCO): 429 nm
emission maximum (in CCO): 431 nm
emission maximum (in CO): 438 nm
emission maximum (in Cc1ccccc1): 393 nm

SMILES: c1ccc(-n2c(-c3ccc(-c4ccc(-c5ccc(-c6nc7c8ccccc8c8ccccc8c7n6-c6ccccc6)cc5)cc4)cc3)nc3ccccc32)cc1
emission maximum (in C1CCOC1): 435 nm
emission maximum (in C1COCCO1): 414 nm
emission maximum (in CC#N): 447 nm
emission maximum (in CCCCCC): 404 nm
emission maximum (in CCCCOCCCC): 411 nm
emission maximum (in CCN(CC)CC): 409 nm
emission maximum (in CCOC(C)=O): 425 nm
emission maximum (in CCOCC): 427 nm
emission maximum (in CN(C)C=O): 447 nm
emission maximum (in Cc1ccccc1): 413 nm
emission maximum (in ClC(Cl)Cl): 427 nm
emission maximum (in ClC=C(Cl)Cl): 417 nm
emission maximum (in ClCCl): 432 nm

emission maximum (in C1CCCCC1): 657 nm
emission maximum (in CCOC(C)=O): 669 nm
SMILES: CC1=[N+]2C(=C(c3ccc(C=O)cc3)c3ccc(C)n3[B-]2(F)F)C=C1c1cc2n(c1)[B-](F)(F)[N+]1=CC=CC1=C2c1c(C)cc(C)cc1C

emission maximum (in ClCCl): 403 nm
SMILES: Cc1c(C)c(-c2cccnc2)c(C)c(C)c1B(c1c(C)c(C)c(-c2cccnc2)c(C)c1C)c1c(C)c(C)c(-c2cccnc2)c(C)c1C

SMILES: S=P1(c2ccccc2)C(c2ccccc2)=Cc2cc3ccccc3cc21 (configuration not stated)
emission maximum (in ClCCl): 425 nm

SMILES: CC(C)(C)c1ccc2c(c1)c1cc(C(C)(C)C)ccc1n2-c1ccc(-c2nc(-c3ccccc3)nc(-c3ccccc3)n2)c2c1c1ccccc1n2-c1ccccc1
emission maximum (in C1CCOC1): 450 nm
emission maximum (in Cc1ccccc1): 417 nm
emission maximum (in ClCCl): 474.77 nm

emission maximum (in ClCCl): 746 nm
SMILES: CCN(CC)c1ccc2c(-c3ccccc3C(=O)O)c3c([o+]c2c1)/C(=C/c1nc(-c2ccccc2)n2ccccc12)CCC3

SMILES: F[B-]1(F)n2cccc2C(c2ccccc2)=C2C=CC=[N+]21
emission maximum (in Cc1ccccc1): 521 nm
emission maximum (in ClCCl): 522 nm

SMILES: C(=C\c1cccc2ccccc12)/c1ccc(-c2nnc(-c3ccc(-c4cc5ccccc5s4)cc3)o2)cc1
emission maximum (in CC#N): 441 nm
emission maximum (in CC(C)=O): 437 nm
emission maximum (in CCCCCCCC): 426 nm
emission maximum (in CCCCCCCCCCO): 437 nm
emission maximum (in CCCCCCCCO): 436 nm
emission maximum (in CCCCCO): 438 nm
emission maximum (in CCCO): 441 nm
emission maximum (in CN(C)C=O): 447 nm
emission maximum (in CO): 448 nm
emission maximum (in CS(C)=O): 455 nm

emission maximum (in ClCCl): 422 nm
SMILES: CN(C)c1cc(-c2ccccc2)cc2ccccc12

emission maximum (in CC#N): 510 nm
emission maximum (in O): 542 nm
SMILES: COc1ccc2c(c1)[n+]([O-])nc(N)[n+]2[O-]

SMILES: Cc1ccc(-c2cc(-c3ccccc3)c(C#N)c(=S)[nH]2)cc1
emission maximum (in C1CCCCC1): 504 nm
emission maximum (in C1COCCO1): 506 nm
emission maximum (in CC#N): 488 nm
emission maximum (in CCCCO): 503 nm
emission maximum (in CCCO): 490 nm
emission maximum (in CCO): 462 nm
emission maximum (in CCOC(C)=O): 522 nm
emission maximum (in CCOCC): 524 nm
emission maximum (in CN(C)C=O): 502 nm
emission maximum (in ClC(Cl)(Cl)Cl): 508 nm

SMILES: CCn1c2ccccc2c2cc(-c3cc(-c4ccc5c(c4)c4ccccc4n5CC)ncn3)ccc21
emission maximum (in C1CCOC1): 395 nm
emission maximum (in CCOC(C)=O): 392 nm
emission maximum (in CN(C)C=O): 418 nm
emission maximum (in Cc1ccccc1): 379 nm
emission maximum (in ClCCl): 414 nm

emission maximum (in C1CCOC1): 556 nm
emission maximum (in CC#N): 611 nm
emission maximum (in CCCCCCC): 468 nm
emission maximum (in CS(C)=O): 622 nm
emission maximum (in ClCCl): 570 nm
SMILES: CN(C)c1ccc(/C=C/c2cnc3ccccc3n2)cc1

SMILES: C#CCNC1=C2C=CC=[N+]2[B-](F)(F)n2cccc21
emission maximum (in C1CCCCC1): 482 nm and 486 nm
emission maximum (in CC(C)=O): 466.5 nm
emission maximum (in CCCCO): 463 nm
emission maximum (in CCCO): 467 nm
emission maximum (in CCO): 463 nm and 468 nm
emission maximum (in CCOC(C)=O): 469.5 nm
emission maximum (in CN(C)C=O): 458 nm
emission maximum (in CO): 464.5 nm
emission maximum (in CS(C)=O): 463 nm
emission maximum (in Cc1ccccc1): 485 nm
emission maximum (in ClC(Cl)Cl): 485 nm
emission maximum (in OCC(F)(F)F): 480.5 nm
emission maximum (in c1ccccc1): 485 nm

emission maximum (in ClC(Cl)Cl): 670 nm
SMILES: Cc1cc(C)c(C2=C3C=CC=[N+]3[B-]3(c4ccc5ccc6cccc7ccc4c5c67)Oc4cc(O)cc5c6ccc(C)cc6c6cc2n3c6c45)c(C)c1 (configuration not stated)

SMILES: COc1cccc(-c2c3ccccc3c3n2[B-](F)(F)[N+]2=Cc4c5ccccc5c(-c5cccc(OC)c5)n4[B-](F)(F)[N+]2=C3)c1
emission maximum (in CC#N): 596 nm
emission maximum (in CCCCCC): 598 nm
emission maximum (in CN(C)C=O): 603 nm
emission maximum (in Cc1ccccc1): 608 nm
emission maximum (in ClCCl): 602 nm

emission maximum (in ClC(Cl)Cl): 387 nm
SMILES: C(#Cc1ccc(C#Cc2ccc(C#Cc3ccccc3)cc2)cc1)c1ccccc1

SMILES: CC1CCC(O)(c2ccc(-c3cccs3)s2)CC1 (configuration not stated)
emission maximum (in C1CCOC1): 412 nm
emission maximum (in CC#N): 405 nm
emission maximum (in CCCCCC): 408 nm
emission maximum (in CCO): 406 nm
emission maximum (in OCCOCCO): 414 nm
emission maximum (in c1ccncc1): 416 nm

emission maximum (in CCCCCC): 380 nm
emission maximum (in CO): 380 nm
emission maximum (in ClCCl): 381 nm
SMILES: C[Si](C)(C)c1ccc2ccc3c([Si](C)(C)C)ccc4ccc1c2c43

emission maximum (in C1CCCCC1): 420 nm
emission maximum (in CO): 430 nm
SMILES: Clc1ccc(/C=C(\c2ccccc2)c2nc3ccccc3s2)cc1

emission maximum (in CC#N): 635 nm
emission maximum (in CCO): 632 nm
emission maximum (in ClCCl): 622 nm
emission maximum (in O): 650 nm
SMILES: C=CCNc1ccc2ccc3oc4cc(=[N+]5CCCC5)ccc-4nc3c2c1

emission maximum (in ClCCl): 735 nm
SMILES: CN(C)c1ccc(C2=CC3=C(c4ccc(C=C(C#N)C#N)cc4)[C@H]4c5ccccc5[C@]3(S2)c2ccccc24)cc1

emission maximum (in CC#N): 462 nm
SMILES: CC(C)(C)OC(=O)c1c(C=Cc2ccccc2)oc(NC2CCCCC2)c1C(=O)OC(C)(C)C

emission maximum (in CS(C)=O): 350 nm
SMILES: O=C1CC(=O)Nc2cc(Br)ccc2N1

SMILES: Cc1cc2cc(N3c4ccccc4Oc4ccccc43)ccc2c(=O)o1
emission maximum (in Cc1ccccc1): 540 nm

emission maximum (in ClCCl): 526 nm
SMILES: CCCCCCCCCCCCN1C(=O)c2c(c3ccc4cc(-c5ccc(Cl)cc5)c(OC)cc4c3c3c2ccc2cc(-c4ccc(Cl)cc4)c(OC)cc23)C1=O

SMILES: COc1ccc2c(c1)c1ccccc1n2-c1nc2ccccc2nc1-n1c2ccccc2c2cc(OC)ccc21
emission maximum (in C1CCOC1): 588.86 nm
emission maximum (in CCCCCC): 508.97 nm
emission maximum (in Cc1ccccc1): 560 nm

emission maximum (in C1CCOC1): 381 nm
SMILES: CCCCOc1cc2ccccc2c2c1oc1cc3ccccc3cc12

emission maximum (in CC#N): 348 nm
emission maximum (in CO): 353 nm
emission maximum (in O): 400 nm
SMILES: CN(C)CCCN1c2ccccc2CCc2ccccc21

SMILES: c1ccc(-c2nc(-c3ccc(-c4ccc(-n5c6ccccc6c6ccccc65)cc4)cn3)oc2-c2ccccc2)cc1
emission maximum (in C1CCOC1): 411 nm
emission maximum (in C1COCCO1): 406 nm
emission maximum (in CC#N): 415 nm
emission maximum (in CC(C)=O): 413 nm
emission maximum (in CC(C)OC(C)C): 398 nm
emission maximum (in CCCCCC): 392 nm
emission maximum (in CCCCOCCCC): 399 nm
emission maximum (in CCN(CC)CC): 396 nm
emission maximum (in CCOC(C)=O): 408 nm
emission maximum (in CCOCC): 400 nm
emission maximum (in Cc1ccccc1): 404 nm
emission maximum (in c1ccccc1): 405 nm

emission maximum (in CCCCCC): 380 nm
emission maximum (in CO): 380 nm
emission maximum (in ClCCl): 381 nm
SMILES: CC(C)c1ccc2ccc3c(C(C)C)ccc4ccc1c2c43

SMILES: c1ccc(N(c2ccccc2)c2ccc3ccc4c(N(c5ccccc5)c5ccccc5)ccc5ccc2c3c54)cc1
emission maximum (in Cc1ccccc1): 458 nm
emission maximum (in ClCCl): 472 nm

emission maximum (in CO): 601 nm
emission maximum (in ClC(Cl)Cl): 601 nm
SMILES: COCCN(CCOC)c1ccc(/C=C/c2sc3c4nc(C)sc4ccc3[n+]2C)cc1

emission maximum (in ClC(Cl)Cl): 440 nm
SMILES: c1ccc(-n2c(-c3ccc(-c4ccc5c(c4)C4(c6ccccc6-c6ccccc64)c4cc(-c6ccc(-c7nc8ccccc8n7-c7ccccc7)cc6)c6ccccc6c4-5)cc3)nc3ccccc32)cc1

SMILES: c1ccc(-p2c(-c3cccs3)cc3ccccc32)cc1 (configuration not stated)
emission maximum (in C1CCOC1): 417 nm

emission maximum (in ClCCl): 400 nm
SMILES: COc1ccc(-c2cnc(-c3ccccc3)o2)cc1OC

emission maximum (in ClC(Cl)Cl): 643 nm
SMILES: F[B-]1(F)n2c(ccc2-c2nc3ccccc3s2)C(c2ccccc2)=C2C=CC(c3nc4ccccc4s3)=[N+]21

emission maximum (in CO): 418 nm
SMILES: COc1ccc(-c2ccc3c(c2)nnn3C[C@H](N)C(=O)O)cc1
